This is an account of results in PMC8896685 (PLoS ONE, 2022).

Numbered stars: 1 amine (or outer) side, 2 acyl side, 3 side chain; on linkers, the order of the positions; unused ones are H or OH. Square brackets hold non-standard residues; d marks the D form. Side chains are listed from the residue outwards. Peptide text beside a SMILES is read from it. * marks the point of attachment. C18 diacid = O=C(O)CCCCCCCCCCCCCCCCC(=O)*; γGlu = O=C(O)[C@H](CCC(=O)[*:2])N[*:1]; AEEA = NCCOCCOCC(=O)O; Aib = CC(C)(N)C(=O)O

One series has as its target Human GLP-1R (Homo sapiens, UniProt P43220). Description: Receptor potency, CRE-luciferase functional assay in BHK cells. The series is classed as cell-based. The note with it: Human receptors, whole BHK cells, 100% species-specific plasma, 3 h 37°C, value (95% CI). As for the experimental part:
(§1) The binding assay was performed on cell membranes in the presence of 1% (v/v) species-specific heparin-treated pooled plasma (Bioreclamation IVT, Westbury, NY) diluted in assay buffer (50 mM HEPES supplemented with 5 mM EGTA, 5 mM MgCl2, and 0.005% (v/v) Tween 20, pH7.4). […] Cells stably expressing an individual receptor of interest were grown at 5% CO2, 37°C in DMEM (supplemented with 10% FCS, 0.5 mg/ml G418 and 0.3 mg/ml hygromycin). Membrane preparations were made from cells harvested at approximately 80% confluence, washed and homogenized in 20 mM HEPES with 0.1 mM EDTA, pH 7.4. Protein concentration was determined, and the membranes were stored at -80°C until use. The membrane binding assay was performed in a 96-well OptiPlate (PerkinElmer) in a total volume of 200 μl. Test compounds were dissolved in 80% DMSO and further diluted in assay buffer. 50 μl of diluted plasma was added to the assay plate wells followed by addition of test compounds (25 μl), cell membranes (50 μl, 0.06 mg/ml), SPA beads (20 mg/ml in assay buffer) and radioligand (60,000 cpm/well, corresponding to 0.06 nM; 2200 Ci/mmol. Each assay plate was incubated for 2 h at 30°C, centrifuged at 1500 rpm for 10 minutes and counted in a TopCount NXT instrument (PerkinElmer).
(§2) Functional assays were performed on whole cells in the absence or presence of 100% species-specific heparin-treated pooled plasma (Bioreclamation IVT). […] The cells were cultured with DMEM (supplemented with GlutaMAX, 10% FBS, 0.5 mg/ml G418 and 0.3 mg/ml hygromycin) at 5% CO2 and 37°C. At approximately 80–90% confluence, cells were washed with PBS and harvested with Versene (Life Technologies, Carlsbad, CA). The cells were counted and plated into 96-well microtiter plates coated with poly-D-Lys (Corning BioCoat) with 5,000 cells/well and thereafter incubated overnight in growth media. The next day the media was changed to assay buffer (DMEM without phenol red, supplemented with GlutaMAX, 10 mM HEPES, 1% ovalbumin and 0.1% Pluronic F-68) or to 100% plasma. In the absence of plasma, compounds were diluted in assay buffer. In assays tested with plasma, compounds were diluted in pure plasma. Buffer was removed from the plates and 50 μl of test compound dilutions was added to the plates followed by 50 μl of plasma or the same buffer used for compound dilution. The assay plates were incubated for 3 h in a 5% CO2 incubator at 37°C. The plates were then transferred to room temperature for 15 min and 100 μl Steadylite Plus reagent (PerkinElmer) was added to each well. The plates were shaken for 30 min at room temperature while protected from light after which luminescence was measured.
(§3) For the receptor binding assays, logIC50 values were calculated using non-linear regression analysis. The error estimation was reported as the 95% confidence interval. […] The calculations were performed in GraphPad Prism 6.4 (GraphPad, San Diego, CA) and error estimation was expressed as the 95% confidence interval. […] Averages, error estimation, ratios and plasma shifts were all calculated on logIC50 or logEC50 values and transformed to the anti-log values for reporting purposes.

Another series concerns the target T1, Human GCGR (Homo sapiens, UniProt P47871).
T1 construct: a plasmid encoding either the glucagon receptor or the GLP-1 receptor from the relevant species; expressed in transfected cells
The description is as above. It is filed as cell-based. Conditions: Human receptors, whole BHK cells, 3 h 37°C, value (95% CI). How it is done: as §1, §2, §3

A further series concerns DIO mice. Description: Acute effect on glucose tolerance in DIO mice (IPGTT). It is filed as in vivo, mouse. The note with it: 3 or 5 nmol/kg s.c., at Cmax and at Cmin, p<0.001. As for the experimental part: All animals received a single s.c. injection of compound at 4 pm, 21 h prior to administration of glucose (for all treated animals to have equally affected food intake in the dark period prior to the intraperitoneal glucose tolerance test (IPGTT)). […] Animals were fasted for 5–6 h prior to intraperitoneal (i.p.) injection of 2 g/kg glucose.

In the next series the target is T2, Rat GLP-1R (Rattus norvegicus, UniProt P32301).
T2 construct: a plasmid encoding either the glucagon receptor or the GLP-1 receptor from the relevant species; expressed in transfected cells
T2 sequence (P32301 22-463): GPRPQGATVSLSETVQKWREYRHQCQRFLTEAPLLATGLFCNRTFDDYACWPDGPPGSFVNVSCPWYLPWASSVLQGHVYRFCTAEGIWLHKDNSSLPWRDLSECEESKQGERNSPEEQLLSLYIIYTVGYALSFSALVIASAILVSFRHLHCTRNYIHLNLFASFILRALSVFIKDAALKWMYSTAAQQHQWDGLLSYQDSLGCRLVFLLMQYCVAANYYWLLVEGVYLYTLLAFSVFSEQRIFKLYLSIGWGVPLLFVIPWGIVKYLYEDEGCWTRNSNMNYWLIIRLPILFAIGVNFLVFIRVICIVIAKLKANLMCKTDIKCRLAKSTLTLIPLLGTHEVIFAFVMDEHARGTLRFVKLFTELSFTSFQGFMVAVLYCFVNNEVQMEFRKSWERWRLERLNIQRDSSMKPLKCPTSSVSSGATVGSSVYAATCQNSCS
Kind of series: Receptor potency, CRE-luciferase functional assay in BHK cells. It is filed as cell-based. Conditions: Rat receptors, whole BHK cells, 0% plasma, 3 h 37°C, value (95% CI). How it is done: as §1, §2, §3

Another series in a line: in vivo. Conditions: mouse, sc. How it is done:
Compound exposure was measured by Luminescence Oxygen Channeling Immunoassay (LOCI). […] The three reactants were combined with the analyte and formed a two-sited immuno-complex. Illumination of the complex released singlet oxygen […] from the donor beads. They were channeled into the acceptor beads and triggered a chemiluminescence response which was measured in an EnVision plate reader (PerkinElmer). The amount of light was proportional to the concentration of the analyte. As calibrators, a dilution line of the relevant analyte in rat/mouse plasma was included.
Plasma concentration-time profiles were analysed using non-compartmental analysis (NCA) using Phoenix WinNonlin Professional 6.3 (Pharsight, Mountain View, CA, US). Calculations were performed using full concentration-time profile values or sparse sampling concentration-time values as appropriate.

T1 sequence (P47871 26-477): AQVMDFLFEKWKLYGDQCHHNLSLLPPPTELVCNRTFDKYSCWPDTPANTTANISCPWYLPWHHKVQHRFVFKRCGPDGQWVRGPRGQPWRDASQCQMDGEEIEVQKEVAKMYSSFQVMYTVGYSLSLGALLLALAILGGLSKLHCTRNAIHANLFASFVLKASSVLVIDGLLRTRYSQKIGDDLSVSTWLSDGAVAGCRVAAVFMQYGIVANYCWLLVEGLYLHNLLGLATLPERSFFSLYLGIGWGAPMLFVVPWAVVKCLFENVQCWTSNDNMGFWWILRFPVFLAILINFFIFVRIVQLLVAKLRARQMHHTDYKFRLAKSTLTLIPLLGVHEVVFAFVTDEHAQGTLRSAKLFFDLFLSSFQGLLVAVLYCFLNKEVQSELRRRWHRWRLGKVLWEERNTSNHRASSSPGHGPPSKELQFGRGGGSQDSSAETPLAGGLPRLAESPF
Sequence of Human GLP-1R (P43220 24-463): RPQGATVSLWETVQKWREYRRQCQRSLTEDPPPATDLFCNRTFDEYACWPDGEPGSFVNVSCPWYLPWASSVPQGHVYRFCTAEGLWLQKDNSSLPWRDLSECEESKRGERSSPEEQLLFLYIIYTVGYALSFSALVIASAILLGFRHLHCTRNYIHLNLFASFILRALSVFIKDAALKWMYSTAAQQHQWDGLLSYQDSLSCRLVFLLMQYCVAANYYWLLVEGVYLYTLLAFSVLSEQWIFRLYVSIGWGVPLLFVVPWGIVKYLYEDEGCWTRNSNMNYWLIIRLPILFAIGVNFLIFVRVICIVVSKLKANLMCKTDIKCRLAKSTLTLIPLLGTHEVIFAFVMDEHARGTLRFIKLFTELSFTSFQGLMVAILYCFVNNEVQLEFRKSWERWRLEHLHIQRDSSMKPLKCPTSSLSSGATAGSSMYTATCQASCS

For orientation: EC50 means the concentration that produces a half-maximal response. A high value points to lower potency in that assay. Consider `CC(C)C[C@H](NC(=O)[C@H](Cc1ccc(O)cc1)NC(=O)[C@H](CCCCN)NC(=O)[C@H](CO)NC(=O)[C@H](CC(C)C)NC(=O)[C@H](CC(=O)O)NC(=O)[C@H](CO)NC(=O)[C@@H](NC(=O)[C@H](Cc1ccccc1)NC(=O)[C@@H](NC(=O)CNC(=O)[C@H](CCC(N)=O)NC(=O)C(C)(C)NC(=O)[C@@H](N)Cc1c[nH]cn1)[C@@H](C)O)[C@@H](C)O)C(=O)N[C@@H](CCC(=O)O)C(=O)N[C@@H](CO)C(=O)N[C@@H](CCCCN)C(=O)N[C@@H](CCCNC(=N)N)C(=O)N[C@@H](C)C(=O)N[C@@H](CCCNC(=N)N)C(=O)N[C@@H](CCC(=O)O)C(=O)N[C@@H](Cc1ccccc1)C(=O)N[C@H](C(=O)N[C@@H](CCC(N)=O)C(=O)N[C@@H](Cc1c[nH]c2ccccc12)C(=O)N[C@@H](CC(C)C)C(=O)N[C@@H](CC(C)C)C(=O)N[C@@H](CCCCNC(=O)CC[C@H](NC(=O)CC[C@H](NC(=O)[C@H](CO)NC(=O)[C@H](CCC(=O)O)NC(=O)[C@H](CO)NC(=O)CC[C@H](NC(=O)CC[C@H](NC(=O)CCCCCCCCCCCCCCCCC(=O)O)C(=O)O)C(=O)O)C(=O)O)C(=O)O)C(=O)N[C@H](C(N)=O)[C@@H](C)O)C(C)C` [NN1177] (H-H[Aib]QGTFTSDLSKYLESKRAREFVQWLLK([γGlu-γGlu-Ser-Glu-Ser-γGlu-γGlu-C18 diacid])T-NH2), for which the concentration for a half-maximal effect (EC50) amounted to 0.149 nM at Human GLP-1R; 1.83 pM at Human GCGR (GCGR EC50, pM (95% CI) 0% plasma, 0% plasma); 312 pM on Human GCGR (GCGR EC50, pM (95% CI) 100% plasma, 100% species-specific plasma). Further, the “Glucose tolerance (IPGTT) vs vehicle” value with DIO mice (2 g/kg glucose i.p.) is “improved”. For the same compound, the “Basal blood glucose vs vehicle” value in the series with DIO mice is listed as “improved”.

By half-life is commonly meant how long it takes for the measured level to halve. A high value points to slow decline. The compound `CC(C)C[C@H](NC(=O)[C@H](CC(C)C)NC(=O)[C@H](Cc1c[nH]c2ccccc12)NC(=O)[C@H](CCC(N)=O)NC(=O)[C@@H](NC(=O)[C@H](Cc1ccccc1)NC(=O)[C@H](CCC(=O)O)NC(=O)[C@H](CCCNC(=N)N)NC(=O)[C@H](C)NC(=O)[C@H](C)NC(=O)[C@H](CCCNC(=N)N)NC(=O)[C@H](CO)NC(=O)[C@H](CC(=O)O)NC(=O)[C@H](CC(C)C)NC(=O)[C@H](Cc1ccc(O)cc1)NC(=O)[C@H](CCCCN)NC(=O)[C@H](CO)NC(=O)[C@H](CC(C)C)NC(=O)[C@H](CC(=O)O)NC(=O)[C@H](CO)NC(=O)[C@@H](NC(=O)[C@H](Cc1ccccc1)NC(=O)[C@@H](NC(=O)CNC(=O)[C@H](CCC(=O)O)NC(=O)C(C)(C)NC(=O)[C@@H](N)Cc1c[nH]cn1)[C@@H](C)O)[C@@H](C)O)C(C)C)C(=O)N[C@@H](CC(N)=O)C(=O)N[C@@H](CCCCNC(=O)CC[C@H](NC(=O)CC[C@H](NC(=O)COCCOCCNC(=O)COCCOCCNC(=O)CC[C@H](NC(=O)CCCCCCCCCCCCCCCCC(=O)O)C(=O)O)C(=O)O)C(=O)O)C(N)=O` [GLP-1 reference] (H-H[Aib]EGTFTSDLSKYLDSRAAREFVQWLLNK([γGlu-γGlu-AEEA-AEEA-γGlu-C18 diacid])-NH2) displayed a half-maximal effective concentration (EC50) on Rat GLP-1R of 2.99 pM. This compound also had a half-life in “in vivo” of 660 min.
